Measurements published in patent US10934300B2, “Atropisomerism for enhanced kinase inhibitor selectivity” (San Diego State University Foundation, priority 2017, dated 2021).

Legend:
[1] = system: panel of tyrosine kinases; assay: Kinase inhibitor profiling across a panel of tyrosine kinases, selectivity score; assay type: biochemical
Protocol: To analyze each analog's selectivity across the panel, selectivity scores were used (Davis et al., Nat. Biotechnol. 2011, 29, 1046-51), which are simply the number of kinases inhibited above a certain threshold divided by the number of kinases evaluated. […] For example at 1000 nM 2e-(R) yielded an S(40%) of 0.11 while 2e-(S) gave an S(40%) of 0.16. […] Differences in selectivity between 2e-(R) and 2e-(S) at 5000 nM (4.5 times the IC50 of 2e-(S) toward Src) and for 5 at 1000 nM (6.25 times the IC50 of 5 toward Src) can be viewed graphically across tyrosine kinases (FIG. 3). Importantly, similar trends were also observed across each of the atropisomeric series tested.
All samples were sent out to Life Technologies to obtain kinase inhibition data. A brief description of the assays and analyses are included below.
Assay Theory (SelectScreen® Kinase Profiling Services (Life Technologies, Madison, Wis. USA). The Z′-LYTE® biochemical assay employs a fluorescence-based, coupled-enzyme format and is based on the differential sensitivity of phosphorylated and non-phosphorylated peptides to proteolytic cleavage. The peptide substrate is labeled with two fluorophores—one at each end—that make up a FRET pair.
In the primary reaction, the kinase transfers the gamma-phosphate of ATP to a single tyrosine, serine or threonine residue in a synthetic FRET-peptide. In the secondary reaction, a site-specific protease recognizes and cleaves non-phosphorylated FRET-peptides. Phosphorylation of FRET-peptides suppresses cleavage by the Development Reagent. Cleavage disrupts FRET between the donor (i.e., coumarin) and acceptor (i.e., fluorescein) fluorophores on the FRET-peptide, whereas uncleaved, phosphorylated FRET-peptides maintain FRET. A ratiometric method, which calculates the ratio (the Emission Ratio) of donor emission to acceptor emission after excitation of the donor fluorophore at 400 nm, is used to quantitate reaction progress, as shown in the equation below: […]
A significant benefit of this ratiometric method for quantitating reaction progress is the elimination of well-to-well variations in FRET-peptide concentration and signal intensities. […] Both cleaved and uncleaved FRET-peptides contribute to the fluorescence signals and therefore to the Emission Ratio. The extent of phosphorylation of the FRET-peptide can be calculated from the Emission Ratio. The Emission Ratio will remain low 1f the FRET-peptide is phosphorylated (i.e., no kinase inhibition) and will be high if the FRET-peptide is non-phosphorylated (i.e., kinase inhibition).
Both cleaved and uncleaved FRET-peptides contribute to the fluorescence signals and therefore to the Emission Ratio. The extent of phosphorylation of the FRET-peptide can be calculated from the Emission Ratio. The Emission Ratio will remain low if the FRET-peptide is phosphorylated (i.e., no kinase inhibition) and will be high if the FRET-peptide is non-phosphorylated (i.e., kinase inhibition).

Abl = Abl (Homo sapiens, UniProt P00519); assay: Z'-LYTE kinase inhibition, Abl
Sequence of Abl (P00519 whole entry): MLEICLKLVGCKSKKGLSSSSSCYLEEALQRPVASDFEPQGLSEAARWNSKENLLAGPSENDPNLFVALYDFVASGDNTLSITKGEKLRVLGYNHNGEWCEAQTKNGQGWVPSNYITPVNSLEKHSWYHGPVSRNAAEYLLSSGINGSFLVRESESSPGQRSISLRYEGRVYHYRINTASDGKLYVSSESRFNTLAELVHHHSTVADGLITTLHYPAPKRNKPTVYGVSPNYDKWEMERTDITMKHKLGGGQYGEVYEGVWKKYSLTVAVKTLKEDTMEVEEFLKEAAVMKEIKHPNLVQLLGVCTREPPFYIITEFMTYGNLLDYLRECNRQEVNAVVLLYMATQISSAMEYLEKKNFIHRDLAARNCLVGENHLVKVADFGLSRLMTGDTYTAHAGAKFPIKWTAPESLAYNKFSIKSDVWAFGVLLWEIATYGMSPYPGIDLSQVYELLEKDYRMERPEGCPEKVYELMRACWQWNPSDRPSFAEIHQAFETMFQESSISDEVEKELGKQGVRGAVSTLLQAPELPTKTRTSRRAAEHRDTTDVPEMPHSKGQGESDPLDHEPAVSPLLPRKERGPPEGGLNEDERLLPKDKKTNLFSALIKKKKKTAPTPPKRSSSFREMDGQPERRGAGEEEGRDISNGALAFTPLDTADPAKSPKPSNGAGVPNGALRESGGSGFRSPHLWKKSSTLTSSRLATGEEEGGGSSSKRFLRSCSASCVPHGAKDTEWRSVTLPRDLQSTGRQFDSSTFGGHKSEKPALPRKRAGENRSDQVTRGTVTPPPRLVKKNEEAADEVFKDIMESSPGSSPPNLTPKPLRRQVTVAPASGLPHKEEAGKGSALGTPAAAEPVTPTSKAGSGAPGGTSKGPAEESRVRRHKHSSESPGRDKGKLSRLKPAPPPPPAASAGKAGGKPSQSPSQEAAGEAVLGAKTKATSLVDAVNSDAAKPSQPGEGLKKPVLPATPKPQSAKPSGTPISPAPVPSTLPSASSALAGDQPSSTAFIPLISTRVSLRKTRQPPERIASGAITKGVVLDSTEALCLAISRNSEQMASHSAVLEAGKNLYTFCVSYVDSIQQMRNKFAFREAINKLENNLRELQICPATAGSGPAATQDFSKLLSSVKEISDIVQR

Alk = Alk (Homo sapiens, UniProt Q9UM73); assay: Z'-LYTE kinase inhibition, Alk
Blk = Blk (Homo sapiens, UniProt P51451); assay: Z'-LYTE kinase inhibition, Blk
BTK = BTK (Homo sapiens, UniProt Q06187); assay: Z'-LYTE kinase inhibition, BTK
CSK = CSK (Homo sapiens, UniProt P41240); assay: Z'-LYTE kinase inhibition, CSK
Sequence of CSK (P41240 whole entry): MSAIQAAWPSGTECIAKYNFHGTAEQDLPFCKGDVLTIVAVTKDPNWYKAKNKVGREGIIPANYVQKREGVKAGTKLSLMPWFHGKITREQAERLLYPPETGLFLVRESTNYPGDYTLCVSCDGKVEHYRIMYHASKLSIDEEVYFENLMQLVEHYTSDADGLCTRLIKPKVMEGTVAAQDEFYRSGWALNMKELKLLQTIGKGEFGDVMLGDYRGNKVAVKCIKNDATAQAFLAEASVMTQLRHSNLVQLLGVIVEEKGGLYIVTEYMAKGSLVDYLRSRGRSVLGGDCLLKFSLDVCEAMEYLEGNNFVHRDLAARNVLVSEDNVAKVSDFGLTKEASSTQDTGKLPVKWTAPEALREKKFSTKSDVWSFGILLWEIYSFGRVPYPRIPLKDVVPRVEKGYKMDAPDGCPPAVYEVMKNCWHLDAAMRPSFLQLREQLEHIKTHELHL

Fgr = Fgr (Homo sapiens, UniProt P09769); assay: Z'-LYTE kinase inhibition, Fgr
Fyn = Fyn (Homo sapiens, UniProt P06241); assay: Z'-LYTE kinase inhibition, Fyn
Sequence of Fyn (P06241 whole entry): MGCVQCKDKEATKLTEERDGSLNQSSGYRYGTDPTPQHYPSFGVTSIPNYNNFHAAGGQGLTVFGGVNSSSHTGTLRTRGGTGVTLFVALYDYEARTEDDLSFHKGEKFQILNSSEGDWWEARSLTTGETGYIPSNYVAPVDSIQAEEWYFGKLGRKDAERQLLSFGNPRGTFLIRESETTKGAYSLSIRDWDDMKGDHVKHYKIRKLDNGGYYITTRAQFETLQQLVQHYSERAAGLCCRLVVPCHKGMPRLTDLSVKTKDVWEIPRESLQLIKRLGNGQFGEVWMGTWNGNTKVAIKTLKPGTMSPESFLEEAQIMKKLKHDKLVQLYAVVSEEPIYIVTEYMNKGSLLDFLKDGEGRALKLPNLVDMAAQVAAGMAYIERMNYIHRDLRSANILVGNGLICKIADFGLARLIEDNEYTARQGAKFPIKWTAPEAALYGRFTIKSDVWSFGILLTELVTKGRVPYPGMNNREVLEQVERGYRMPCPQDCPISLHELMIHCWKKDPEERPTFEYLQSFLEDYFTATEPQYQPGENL

Hck = Hck (Homo sapiens, UniProt P08631); assay: Z'-LYTE kinase inhibition, Hck
Kit = Kit (Homo sapiens, UniProt P10721); assay: Z'-LYTE kinase inhibition, Kit
Lck = Lck (Homo sapiens, UniProt P06239); assay: Z'-LYTE kinase inhibition, Lck
Lyn = Lyn (Homo sapiens, UniProt P07948); assay: Z'-LYTE kinase inhibition, Lyn
Ret kinase = Ret kinase (Homo sapiens, UniProt P07949); assay: Z'-LYTE kinase inhibition, Ret
Sequence of Ret kinase (P07949 29-1114): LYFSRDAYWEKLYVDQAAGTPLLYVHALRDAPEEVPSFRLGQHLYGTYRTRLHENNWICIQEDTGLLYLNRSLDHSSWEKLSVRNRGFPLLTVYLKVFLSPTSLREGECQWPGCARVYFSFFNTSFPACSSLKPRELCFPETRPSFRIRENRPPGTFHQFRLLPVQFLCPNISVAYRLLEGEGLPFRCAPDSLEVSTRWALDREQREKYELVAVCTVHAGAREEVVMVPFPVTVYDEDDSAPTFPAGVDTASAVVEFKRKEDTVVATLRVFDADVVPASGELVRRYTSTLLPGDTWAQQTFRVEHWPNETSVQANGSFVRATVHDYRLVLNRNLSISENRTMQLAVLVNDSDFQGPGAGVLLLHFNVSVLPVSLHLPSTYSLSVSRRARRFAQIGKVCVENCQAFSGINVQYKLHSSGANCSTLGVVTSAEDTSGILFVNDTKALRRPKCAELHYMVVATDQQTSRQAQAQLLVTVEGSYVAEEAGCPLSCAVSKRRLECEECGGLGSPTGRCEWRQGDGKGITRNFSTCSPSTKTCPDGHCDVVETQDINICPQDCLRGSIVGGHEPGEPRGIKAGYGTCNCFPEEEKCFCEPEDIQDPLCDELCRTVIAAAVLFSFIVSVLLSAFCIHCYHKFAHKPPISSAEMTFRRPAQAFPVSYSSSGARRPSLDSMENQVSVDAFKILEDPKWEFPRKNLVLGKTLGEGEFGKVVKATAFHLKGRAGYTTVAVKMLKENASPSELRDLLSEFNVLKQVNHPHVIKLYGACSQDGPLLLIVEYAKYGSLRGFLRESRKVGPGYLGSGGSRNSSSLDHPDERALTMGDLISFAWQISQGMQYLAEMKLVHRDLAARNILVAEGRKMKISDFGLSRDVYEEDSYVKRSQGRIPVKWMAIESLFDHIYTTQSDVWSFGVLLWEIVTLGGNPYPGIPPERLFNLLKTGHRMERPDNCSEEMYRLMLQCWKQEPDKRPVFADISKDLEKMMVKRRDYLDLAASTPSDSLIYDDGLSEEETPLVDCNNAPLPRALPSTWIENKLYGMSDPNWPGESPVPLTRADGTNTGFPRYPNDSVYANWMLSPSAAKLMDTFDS

Yes = Yes (Homo sapiens, UniProt P07947); assay: Z'-LYTE kinase inhibition, Yes
Sequence of Yes (P07947 whole entry): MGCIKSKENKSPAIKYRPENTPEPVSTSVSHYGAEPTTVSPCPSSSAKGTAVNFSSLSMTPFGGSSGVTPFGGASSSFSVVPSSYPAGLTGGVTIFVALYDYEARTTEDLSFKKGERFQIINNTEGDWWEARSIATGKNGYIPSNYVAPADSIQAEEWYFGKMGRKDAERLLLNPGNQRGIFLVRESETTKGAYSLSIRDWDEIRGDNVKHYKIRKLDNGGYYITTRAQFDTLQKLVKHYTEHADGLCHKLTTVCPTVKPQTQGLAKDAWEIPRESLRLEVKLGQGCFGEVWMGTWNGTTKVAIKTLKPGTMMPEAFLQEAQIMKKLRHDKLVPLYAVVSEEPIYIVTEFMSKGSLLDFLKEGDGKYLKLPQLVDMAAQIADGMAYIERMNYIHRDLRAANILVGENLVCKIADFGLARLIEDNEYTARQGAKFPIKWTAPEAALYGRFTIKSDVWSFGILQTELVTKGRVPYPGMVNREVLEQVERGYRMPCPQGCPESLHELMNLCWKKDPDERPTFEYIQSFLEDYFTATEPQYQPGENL

Src kinase = Src kinase (Homo sapiens, UniProt P12931); assay: Z'-LYTE kinase inhibition, Src; conditions: Src relative to Yes
EGFR = EGFR (Homo sapiens, UniProt P00533); assay: Z'-LYTE kinase inhibition, EGFR; conditions: EGFR relative to Yes
pdgfr-a = pdgfr-a (Homo sapiens, UniProt P16234); assay: Z'-LYTE kinase inhibition, pdgfr-a
Sequence of pdgfr-a (P16234 24-1089): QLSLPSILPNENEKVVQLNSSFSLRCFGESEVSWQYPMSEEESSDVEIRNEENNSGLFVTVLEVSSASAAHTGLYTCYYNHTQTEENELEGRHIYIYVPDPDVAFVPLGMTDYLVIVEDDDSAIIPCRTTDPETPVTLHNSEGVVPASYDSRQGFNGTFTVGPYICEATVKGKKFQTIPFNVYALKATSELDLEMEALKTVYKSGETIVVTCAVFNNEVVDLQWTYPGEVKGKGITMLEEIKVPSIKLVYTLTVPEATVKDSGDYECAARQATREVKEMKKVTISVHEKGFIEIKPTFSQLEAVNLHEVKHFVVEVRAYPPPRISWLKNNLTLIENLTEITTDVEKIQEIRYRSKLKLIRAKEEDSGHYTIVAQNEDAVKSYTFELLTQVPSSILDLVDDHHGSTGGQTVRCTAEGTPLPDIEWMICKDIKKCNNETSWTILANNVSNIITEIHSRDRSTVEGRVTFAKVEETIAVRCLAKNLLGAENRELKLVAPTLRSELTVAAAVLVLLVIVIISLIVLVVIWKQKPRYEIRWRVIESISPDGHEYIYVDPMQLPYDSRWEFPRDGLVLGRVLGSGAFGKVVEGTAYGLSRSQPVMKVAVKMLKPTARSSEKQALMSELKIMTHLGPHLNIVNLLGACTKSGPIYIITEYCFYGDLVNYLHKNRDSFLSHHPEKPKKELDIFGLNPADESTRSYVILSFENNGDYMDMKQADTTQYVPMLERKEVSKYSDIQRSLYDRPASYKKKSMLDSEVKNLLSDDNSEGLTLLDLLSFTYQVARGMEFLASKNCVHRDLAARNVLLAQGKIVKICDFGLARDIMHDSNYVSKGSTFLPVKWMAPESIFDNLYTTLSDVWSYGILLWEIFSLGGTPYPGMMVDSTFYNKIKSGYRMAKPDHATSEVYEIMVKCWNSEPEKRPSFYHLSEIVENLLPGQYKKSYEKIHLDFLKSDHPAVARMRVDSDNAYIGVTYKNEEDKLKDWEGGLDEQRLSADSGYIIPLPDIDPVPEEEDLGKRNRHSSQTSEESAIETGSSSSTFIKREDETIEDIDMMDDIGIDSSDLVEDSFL

pdgfr-b = pdgfr-b (Homo sapiens, UniProt P09619); assay: Z'-LYTE kinase inhibition, pdgfr-b

## COc1ccc(Cl)c(-c2c(Cl)n(C(C)(C)C)c3ncnc(N)c23)c1 (single isomer, unassigned) [2e-(S), 7-(tert-butyl)-6-chloro-5-(2-chloro-5-methoxyphenyl)-7H-pyrrolo[2,3-d]pyrimidin-4-amine]
[1]; 1000 nM
  S(40%): number of kinases inhibited greater than 40% divided by number of kinases tested (including Src): 0.16
[1]; 5000 nM
  S(40%): number of kinases inhibited greater than 40% divided by number of kinases tested (including Src): 0.61
[1]; share of the 18 tyrosine kinases inhibited, concentration not printed in Table 3
  Inhibited % (n/18) of tyrosine kinases: (S): Inhibited 16% (3/18)
Abl; Abl relative to Yes
  IC50 of compound Kinase/IC50 of compound Yes: 1.96
Abl; Abl, 5000 nM
  S/R (5000 nM): % inhibition 2e-(S) / % inhibition 2e-(R): 2.57
Alk
  S/R (5000 nM): % inhibition 2e-(S) / % inhibition 2e-(R): 0.38
Blk
  S/R (5000 nM): % inhibition 2e-(S) / % inhibition 2e-(R): 1.46
BTK
  S/R (5000 nM): % inhibition 2e-(S) / % inhibition 2e-(R): 1.86
CSK
  S/R (5000 nM): % inhibition 2e-(S) / % inhibition 2e-(R): 1.28
Fgr
  S/R (5000 nM): % inhibition 2e-(S) / % inhibition 2e-(R): 1.05
Fyn
  S/R (5000 nM): % inhibition 2e-(S) / % inhibition 2e-(R): 1.27
Hck
  S/R (5000 nM): % inhibition 2e-(S) / % inhibition 2e-(R): 1.25
Kit
  S/R (5000 nM): % inhibition 2e-(S) / % inhibition 2e-(R): 1.38
Lck
  S/R (5000 nM): % inhibition 2e-(S) / % inhibition 2e-(R): 1.05
Lyn
  S/R (5000 nM): % inhibition 2e-(S) / % inhibition 2e-(R): 1.31
Ret kinase; Ret relative to Yes
  IC50 of compound Kinase/IC50 of compound Yes: 10.53
Ret kinase; Ret versus Abl and Src, listed as 2e-(5)
  augmentation/increase of 5's inherent selectivity: ~8 fold
Ret kinase; Ret, 5000 nM
  S/R (5000 nM): % inhibition 2e-(S) / % inhibition 2e-(R): 0.44
Yes; Yes relative to Yes
  IC50 of compound Kinase/IC50 of compound Yes: 1
Yes; Yes, 5000 nM
  S/R (5000 nM): % inhibition 2e-(S) / % inhibition 2e-(R): 0.97
Src kinase
  IC50 of compound Kinase/IC50 of compound Yes: 1.64
EGFR
  IC50 of compound Kinase/IC50 of compound Yes: >10.0
pdgfr-a
  S/R (5000 nM): % inhibition 2e-(S) / % inhibition 2e-(R): 1.63
pdgfr-b
  S/R (5000 nM): % inhibition 2e-(S) / % inhibition 2e-(R): 1.23
